According to the supplement of paper PMC11061612:

Columns and labels:
Test in all cases: combination Emax (second highest fraction inhibited in the dose matrix, 72 h); higher = more inhibition; extreme values may be limits of the assay
[1] = system: 639-V (Bladder Carcinoma)
Procedure, shortened: (§1)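 Cell lines grown in DMEM/F12 or RPMI with 10% FBS were plated in 1536-well plates and held 24 hours at 37°C, 5% CO2 before 72 hours of exposure to two-drug dose matrices, with DMSO typically at 0.2%. CellTiter-Glo 2.0 luminescence gave viability, which was converted to inhibition. Vehicle wells were set to 0 and blank wells to 1. Combination Emax is the second-highest inhibition in the matrix, and Bliss excess is the observed combination effect minus the expected EA + EB − EA·EB, where EA and EB are the single-agent effects.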

[2] = system: 8305C (Thyroid Gland Carcinoma)
Procedure, shortened: as §1

[3] = system: CAL-51 (Breast Carcinoma)
Procedure, shortened: as §1

[4] = system: CTB-1 (B-Cell Non-Hodgkin's Lymphoma)
Procedure, shortened: as §1

[5] = system: HDLM-2 (Hodgkin's Lymphoma)
Procedure, shortened: as §1

[6] = system: HO-1-u-1 (Oral Cavity Carcinoma)
Procedure, shortened: as §1

[7] = system: Hs-633T (Other Solid Carcinomas)
Procedure, shortened: as §1

[8] = system: K5 (Thyroid Gland Carcinoma)
Procedure, shortened: as §1

[9] = system: KYSE-410 (Esophageal Squamous Cell Carcinoma)
Procedure, shortened: as §1

[10] = system: MDA-MB-468 (Breast Carcinoma)
Procedure, shortened: as §1

Mewo (Melanoma) = system: Mewo (Melanoma)
Procedure, shortened: as §1

NCI-H2461 (Mesothelioma) = system: NCI-H2461 (Mesothelioma)
Procedure, shortened: as §1

NCI-H2795 (Mesothelioma) = system: NCI-H2795 (Mesothelioma)
Procedure, shortened: as §1

[11] = system: NCI-H747 (Colorectal Carcinoma)
Procedure, shortened: as §1

[12] = system: OC-314 (Ovarian Carcinoma)
Procedure, shortened: as §1

[13] = system: OVCAR-8 (Ovarian Carcinoma)
Procedure, shortened: as §1

[14] = system: RT-112 (Bladder Carcinoma)
Procedure, shortened: as §1

[15] = system: SU-DHL-6 (B-Cell Non-Hodgkin's Lymphoma)
Procedure, shortened: as §1

[16] = system: SW626 (Colorectal Carcinoma)
Procedure, shortened: as §1

[17] = system: UMC-11 (Other Solid Carcinomas)
Procedure, shortened: as §1

SMILES | combination Emax [1] | combination Emax [2] | combination Emax [3] | combination Emax [4] | combination Emax [5] | combination Emax [6] | combination Emax [7] | combination Emax [8] | combination Emax [9] | combination Emax [10] | combination Emax (Mewo (Melanoma)) | combination Emax (NCI-H2461 (Mesothelioma)) | combination Emax (NCI-H2795 (Mesothelioma)) | combination Emax [11] | combination Emax [12] | combination Emax [13] | combination Emax [14] | combination Emax [15] | combination Emax [16] | combination Emax [17]
COc1cccc(OCCCN)c1-c1cc(Nc2cnc(C#N)cn2)n[nH]1 [Prexasertib] + O=C(c1cc(Cc2n[nH]c(=O)c3ccccc23)ccc1F)N1CCN(C(=O)C2CC2)CC1 [Olaparib] (first compound max 1 µM, 7x7, partner max 10 µM) | 0.868 | 0.785 | 0.86 | 0.876 | 0.626 | 0.936 | 0.854 | 0.634 | 0.382 | 0.603 | 0.505 | 0.652 | 0.674 | 0.422 | 0.971 | 0.966 | 0.797 | 0.653 | 0.64 | 0.902
CN(CCO)CC[C@H](CSc1ccccc1)Nc1ccc(S(=O)(=O)NC(=O)c2ccc(N3CCC([C@@H](O)c4ccccc4-c4ccc(Cl)cc4)CC3)cc2)cc1S(=O)(=O)C(F)(F)F [AZD4320] + Cn1cnc2c(F)c(Nc3ccc(Br)cc3Cl)c(C(=O)NOCCO)cc21 [Selumetinib] (first compound max 1 µM, 7x7, partner max 3 µM) | 0.978 | 0.71 | 0.487 | 0.591 | 0.847 | 0.465 | 0.5 | 0.679 | 0.391 | 0.789 | 0.528 | 0.328 | 0.827 | 0.793 | 0.351 | 0.498 | 0.552 | 0.974 | 0.837 | 0.467
COc1cccc(OCCCN)c1-c1cc(Nc2cnc(C#N)cn2)n[nH]1 [Prexasertib] + CCc1c2c(nc3ccc(O)cc13)-c1cc3c(c(=O)n1C2)COC(=O)[C@]3(O)CC [SN-38] (first compound max 1 µM, 7x7, partner max 0.3 µM) | 1 | 0.823 | 0.901 | 0.934 | 0.676 | 0.996 | 0.814 | 0.628 | 0.705 | 0.817 | 0.721 | 0.705 | 0.813 | 0.724 | 1 | 1 | 1 | 0.991 | 0.819 | 0.959
Cc1cc2ncnn2cc1Nc1ncc2c(n1)n(C1CCOCC1)c(=O)n2C [AZD7648] + O=C(c1cc(Cc2n[nH]c(=O)c3ccccc23)ccc1F)N1CCN(C(=O)C2CC2)CC1 [Olaparib] (first compound max 10 µM, 7x7, partner max 10 µM) | 0.182 | 0.31 | 0.265 | 0.331 | 0.155 | 0.261 | 0.313 | 0.421 | 0.141 | 0.242 | 0.138 | 0.278 | 0.421 | 0.241 | 0.24 | 0.344 | 0.143 | 0.346 | 0.13 | 0.244
COc1cccc(OCCCN)c1-c1cc(Nc2cnc(C#N)cn2)n[nH]1 [Prexasertib] + CN(C)CCCOc1ccc(-c2ccc3ncc4c(c3c2)n(C2CCOCC2)c(=O)n4C)cn1 [AZD0156] (first compound max 1 µM, 7x7, partner max 1 µM) | 0.446 | 0.737 | 0.946 | 0.96 | 0.512 | 0.975 | 0.908 | 0.767 | 0.483 | 0.492 | 0.531 | 0.745 | 0.789 | 0.37 | 0.962 | 0.988 | 0.975 | 0.642 | 0.707 | 0.902
CCN(CCO)CCCOc1ccc2c(Nc3cc(CC(=O)Nc4cccc(F)c4)[nH]n3)ncnc2c1 [AZD2811] + O=C(c1cc(Cc2n[nH]c(=O)c3ccccc23)ccc1F)N1CCN(C(=O)C2CC2)CC1 [Olaparib] (first compound max 1 µM, 7x7, partner max 10 µM) | 0.237 | 0.169 | 0.314 | 0.515 | 0.258 | 0.274 | 0.441 | 0.329 | 0.165 | 0.413 | 0.226 | 0.278 | 0.395 | 0.232 | 0.487 | 0.367 | 0.424 | 0.365 | 0.213 | 0.75
CC1(C)CCC(CN2CCN(c3ccc(C(=O)NS(=O)(=O)c4ccc(NCC5CCOCC5)c([N+](=O)[O-])c4)c(Oc4cnc5[nH]ccc5c4)c3)CC2)=C(c2ccc(Cl)cc2)C1 [Venetoclax] + COc1cc(Nc2ncc3c(n2)-c2ccc(Cl)cc2C(c2c(F)cccc2OC)=NC3)ccc1C(=O)O [Alisertib] (first compound max 1 µM, 7x7, partner max 10 µM) | 0.752 | 0.627 | 0.574 | 0.75 | 0.643 | 0.611 | 0.44 | 0.841 | 0.361 | 0.748 | 0.416 | 0.459 | 0.936 | 0.419 | 0.504 | 0.487 | 0.673 | 0.96 | 0.314 | 0.798
CC1(C)CCC(CN2CCN(c3ccc(C(=O)NS(=O)(=O)c4ccc(NCC5CCOCC5)c([N+](=O)[O-])c4)c(Oc4cnc5[nH]ccc5c4)c3)CC2)=C(c2ccc(Cl)cc2)C1 [Venetoclax] + C=CCn1c(=O)c2cnc(Nc3ccc(N4CCN(C)CC4)cc3)nc2n1-c1cccc(C(C)(C)O)n1 [AZD1775] (first compound max 1 µM, partner max 1 µM) | 0.428 | 0.639 | 0.851 | 0.897 | 0.88 | 0.949 | 0.719 | 0.523 | 0.422 | 0.521 | 0.621 | 0.731 | 0.658 | 0.479 | 0.933 | 0.798 | 0.978 | 0.941 | 0.647 | 0.487
CCc1c2c(nc3ccc(O)cc13)-c1cc3c(c(=O)n1C2)COC(=O)[C@]3(O)CC [SN-38] + CN(C)CCCOc1ccc(-c2ccc3ncc4c(c3c2)n(C2CCOCC2)c(=O)n4C)cn1 [AZD0156] (first compound max 0.3 µM, 7x7, partner max 1 µM) | 1 | 0.572 | 0.728 | 0.859 | 0.341 | 0.676 | 0.838 | 0.512 | 0.254 | 0.735 | 0.248 | 0.639 | 0.808 | 0.408 | 1 | 0.849 | 0.797 | 0.987 | 0.428 | 0.303
Cc1c2c(nn1C)CSCc1cc(n(C)n1)CSc1cc(c3ccccc3c1)OCCCc1c(C(=O)O)n(C)c3c-2c(Cl)ccc13 [AZD5991] + C[C@@H](Nc1cc(F)cc(F)c1)c1cc(C(=O)N(C)C)cc2c(=O)cc(N3CCOCC3)oc12 [AZD8186] (first compound max 1 µM, 7x7, partner max 3 µM) | 0.421 | 0.588 | 0.336 | 0.384 | 0.996 | 0.279 | 0.268 | 0.362 | 0.221 | 0.605 | 0.314 | 0.363 | 0.926 | 0.517 | 0.297 | 0.268 | 0.89 | 1 | 0.223 | 0.32
CN(CCO)CC[C@H](CSc1ccccc1)Nc1ccc(S(=O)(=O)NC(=O)c2ccc(N3CCC([C@@H](O)c4ccccc4-c4ccc(Cl)cc4)CC3)cc2)cc1S(=O)(=O)C(F)(F)F [AZD4320] + CCN(CCO)CCCOc1ccc2c(Nc3cc(CC(=O)Nc4cccc(F)c4)[nH]n3)ncnc2c1 [AZD2811] (first compound max 1 µM, 7x7, partner max 1 µM) | 0.303 | 0.386 | 0.615 | 0.503 | 0.924 | 0.824 | 0.54 | 0.33 | 0.17 | 0.885 | 0.303 | 0.174 | 0.284 | 0.414 | 0.804 | 0.651 | 0.913 | 0.958 | 0.825 | 0.93
COc1cc2c(cc1OCCCCCOc1cc3c(cc1OC)C(=O)N1C=C(C)C[C@H]1C=N3)N=C[C@@H]1CC(C)=CN1C2=O [SG3199] + O=C(c1cc(Cc2n[nH]c(=O)c3ccccc23)ccc1F)N1CCN(C(=O)C2CC2)CC1 [Olaparib] (first compound max 0.001 µM, 7x7, partner max 10 µM) | 0.201 | 0.141 | 0.202 | 0.28 | 0.167 | 0.15 | 0.142 | 0.196 | 0.136 | 0.231 | 0.106 | 0.11 | 0.269 | 0.0668 | 0.205 | 0.268 | 0.1 | 0.171 | 0.102 | 0.168
